Tests used:
[1] = molecular target: Tyrosine-protein kinase ABL1 (Homo sapiens) (UniProt P00519); assay: Inhibition of human full-length ABL expressed in baculovirus assessed as substrate phosphorylation using fluorescence-labelled peptides as substrate at 95 uM after 90 mins by microfluidic peptide phosphorylation assay
[2] = molecular target: T1, Serine/threonine-protein kinase DCLK2 (Homo sapiens) (UniProt Q8N568); assay: Inhibition of human full length DCAMKL2 expressed in baculovirus assessed as substrate phosphorylation using fluorescence-labelled peptides as substrate at 95 uM after 90 mins by microfluidic peptide phosphorylation assay
T1 sequence (whole entry): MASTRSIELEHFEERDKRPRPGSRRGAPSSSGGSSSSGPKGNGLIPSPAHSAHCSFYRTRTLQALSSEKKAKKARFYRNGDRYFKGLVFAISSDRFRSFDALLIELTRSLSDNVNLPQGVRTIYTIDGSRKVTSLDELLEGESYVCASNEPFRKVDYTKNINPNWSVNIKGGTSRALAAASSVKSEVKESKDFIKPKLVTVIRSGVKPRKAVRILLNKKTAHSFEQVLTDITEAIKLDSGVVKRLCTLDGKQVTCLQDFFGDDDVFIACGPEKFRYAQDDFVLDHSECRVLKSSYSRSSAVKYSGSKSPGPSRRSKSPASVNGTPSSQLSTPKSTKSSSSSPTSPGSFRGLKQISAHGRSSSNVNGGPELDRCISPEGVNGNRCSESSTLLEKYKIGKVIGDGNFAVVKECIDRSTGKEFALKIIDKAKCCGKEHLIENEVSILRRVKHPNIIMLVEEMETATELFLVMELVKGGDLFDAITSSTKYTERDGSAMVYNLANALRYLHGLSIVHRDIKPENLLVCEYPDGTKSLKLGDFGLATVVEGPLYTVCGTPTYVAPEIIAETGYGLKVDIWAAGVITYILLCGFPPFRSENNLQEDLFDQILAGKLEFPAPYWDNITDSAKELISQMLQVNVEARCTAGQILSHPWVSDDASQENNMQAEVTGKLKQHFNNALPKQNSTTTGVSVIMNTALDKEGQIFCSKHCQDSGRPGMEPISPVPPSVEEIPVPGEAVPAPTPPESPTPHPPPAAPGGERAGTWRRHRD

[3] = molecular target: Hepatocyte growth factor receptor (Homo sapiens) (UniProt P08581); assay: Inhibition of human MET cytoplasmic domain expressed in baculovirus assessed as substrate phosphorylation using fluorescence-labelled peptides as substrate at 8 uM after 90 mins by microfluidic peptide phosphorylation assay
[4] = molecular target: T2, Serine/threonine-protein kinase D3 (Homo sapiens) (UniProt O94806); assay: Inhibition of human full length PKD3 expressed in baculovirus assessed as substrate phosphorylation using fluorescence-labelled peptides as substrate at 8 uM after 90 mins by microfluidic peptide phosphorylation assay
T2 sequence (whole entry): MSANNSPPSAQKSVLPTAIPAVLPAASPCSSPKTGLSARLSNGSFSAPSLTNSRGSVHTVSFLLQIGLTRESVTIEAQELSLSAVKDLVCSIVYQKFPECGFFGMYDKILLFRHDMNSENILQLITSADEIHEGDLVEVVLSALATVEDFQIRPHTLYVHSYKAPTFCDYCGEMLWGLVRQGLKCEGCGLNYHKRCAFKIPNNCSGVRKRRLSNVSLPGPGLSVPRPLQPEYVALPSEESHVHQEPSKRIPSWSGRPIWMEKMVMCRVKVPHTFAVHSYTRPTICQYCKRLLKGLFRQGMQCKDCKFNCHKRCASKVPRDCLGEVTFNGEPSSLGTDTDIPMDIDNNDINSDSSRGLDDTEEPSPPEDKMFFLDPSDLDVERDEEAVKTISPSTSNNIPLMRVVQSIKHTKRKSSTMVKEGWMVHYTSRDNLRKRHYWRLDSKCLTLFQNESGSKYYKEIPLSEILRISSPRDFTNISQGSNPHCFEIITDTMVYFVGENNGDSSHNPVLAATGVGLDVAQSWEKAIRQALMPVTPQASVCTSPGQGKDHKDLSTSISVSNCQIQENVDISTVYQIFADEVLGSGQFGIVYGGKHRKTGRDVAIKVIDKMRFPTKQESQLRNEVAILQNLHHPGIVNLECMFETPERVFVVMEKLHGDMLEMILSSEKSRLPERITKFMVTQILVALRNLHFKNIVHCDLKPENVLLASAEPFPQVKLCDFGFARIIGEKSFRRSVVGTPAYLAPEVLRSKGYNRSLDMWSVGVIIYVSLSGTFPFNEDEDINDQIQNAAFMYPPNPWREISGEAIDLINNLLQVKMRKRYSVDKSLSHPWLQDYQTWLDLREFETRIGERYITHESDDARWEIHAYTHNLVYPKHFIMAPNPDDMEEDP

[5] = molecular target: Tyrosine-protein kinase Fer (Homo sapiens) (UniProt P16591); assay: Inhibition of human FER catalytic domain expressed in baculovirus assessed as substrate phosphorylation using fluorescence-labelled peptides as substrate at 0.06 uM after 90 mins by microfluidic peptide phosphorylation assay
[6] = molecular target: MAP kinase p38 (Homo sapiens) (UniProt O15264+Q15759+Q16539+P53778); details: 0.1 uM
Description: Inhibition of human full length p38 beta2 expressed in Escherichia coli cell assessed as substrate phosphorylation using fluorescence-labelled peptides as substrate at 0.1 uM after 90 mins by microfluidic peptide phosphorylation assay

[7] = molecular target: MAP kinase-activated protein kinase 3 (Homo sapiens) (UniProt Q16644); assay: Inhibition of human full length MAPKAPK3 expressed in Escherichia coli cell assessed as substrate phosphorylation using fluorescence-labelled peptides as substrate at […] after 90 mins by microfluidic peptide phosphorylation assay
[8] = molecular target: Platelet-derived growth factor receptor alpha (Homo sapiens) (UniProt P16234); assay: Inhibition of human PDGFR alpha catalytic domain expressed in baculovirus assessed as substrate phosphorylation using fluorescence-labelled peptides as substrate at […] after 90 mins by microfluidic peptide phosphorylation assay
[9] = molecular target: Casein kinase I isoform delta (Homo sapiens) (UniProt P48730); assay: Inhibition of human CK1D catalytic domain expressed in Escherichia coli cell assessed as substrate phosphorylation using fluorescence-labelled peptides as substrate at […] after 90 mins by microfluidic peptide phosphorylation assay
[10] = molecular target: Tyrosine-protein kinase ABL2 (Homo sapiens) (UniProt P42684); assay: Inhibition of human truncated Arg expressed in baculovirus assessed as substrate phosphorylation using fluorescence-labelled peptides as substrate at 420 uM after 90 mins by microfluidic peptide phosphorylation assay
[11] = molecular target: Casein kinase I isoform delta (Homo sapiens) (UniProt P48730); assay: Inhibition of human CK1D catalytic domain expressed in Escherichia coli cell assessed as substrate phosphorylation using fluorescence-labelled peptides as substrate at 9 uM after 90 mins by microfluidic peptide phosphorylation assay

Sequence of Casein kinase I isoform delta (Homo sapiens) (P48730 whole entry, looked up, the tested form may be a part, canonical isoform): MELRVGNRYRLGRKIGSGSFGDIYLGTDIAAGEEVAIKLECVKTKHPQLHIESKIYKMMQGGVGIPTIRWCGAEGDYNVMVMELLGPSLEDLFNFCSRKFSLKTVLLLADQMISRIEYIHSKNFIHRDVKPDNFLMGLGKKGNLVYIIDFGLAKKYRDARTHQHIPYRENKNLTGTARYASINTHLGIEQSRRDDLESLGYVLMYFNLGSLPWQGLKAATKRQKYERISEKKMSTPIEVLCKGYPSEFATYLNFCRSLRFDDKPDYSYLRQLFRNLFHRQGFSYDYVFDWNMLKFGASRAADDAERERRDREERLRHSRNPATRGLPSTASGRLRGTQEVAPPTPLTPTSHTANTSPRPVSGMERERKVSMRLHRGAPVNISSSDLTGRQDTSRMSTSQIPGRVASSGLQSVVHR
Sequence of Tyrosine-protein kinase Fer (Homo sapiens) (P16591 whole entry, looked up, the tested form may be a part): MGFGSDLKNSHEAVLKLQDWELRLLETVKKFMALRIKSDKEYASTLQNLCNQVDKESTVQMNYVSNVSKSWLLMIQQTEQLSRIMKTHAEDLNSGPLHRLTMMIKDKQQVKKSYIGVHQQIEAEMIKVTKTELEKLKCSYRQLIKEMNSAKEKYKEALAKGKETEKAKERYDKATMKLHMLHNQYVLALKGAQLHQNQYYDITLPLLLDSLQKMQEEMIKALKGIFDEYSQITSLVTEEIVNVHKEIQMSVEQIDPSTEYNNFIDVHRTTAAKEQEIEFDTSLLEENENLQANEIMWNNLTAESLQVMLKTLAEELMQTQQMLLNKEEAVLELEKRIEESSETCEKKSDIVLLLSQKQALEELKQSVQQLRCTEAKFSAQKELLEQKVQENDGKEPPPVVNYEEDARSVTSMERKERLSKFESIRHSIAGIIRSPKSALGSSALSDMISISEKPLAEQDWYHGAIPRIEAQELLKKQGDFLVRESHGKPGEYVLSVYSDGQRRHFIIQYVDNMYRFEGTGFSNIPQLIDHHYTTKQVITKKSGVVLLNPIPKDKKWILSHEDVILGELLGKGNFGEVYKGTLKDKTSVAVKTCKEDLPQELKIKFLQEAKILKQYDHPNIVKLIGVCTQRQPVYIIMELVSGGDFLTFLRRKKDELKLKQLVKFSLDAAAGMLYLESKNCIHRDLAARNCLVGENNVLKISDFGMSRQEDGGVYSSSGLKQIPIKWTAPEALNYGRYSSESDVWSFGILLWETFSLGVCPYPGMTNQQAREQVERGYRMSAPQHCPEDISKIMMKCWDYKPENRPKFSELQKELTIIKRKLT
Sequence of Tyrosine-protein kinase ABL1 (Homo sapiens) (P00519 whole entry): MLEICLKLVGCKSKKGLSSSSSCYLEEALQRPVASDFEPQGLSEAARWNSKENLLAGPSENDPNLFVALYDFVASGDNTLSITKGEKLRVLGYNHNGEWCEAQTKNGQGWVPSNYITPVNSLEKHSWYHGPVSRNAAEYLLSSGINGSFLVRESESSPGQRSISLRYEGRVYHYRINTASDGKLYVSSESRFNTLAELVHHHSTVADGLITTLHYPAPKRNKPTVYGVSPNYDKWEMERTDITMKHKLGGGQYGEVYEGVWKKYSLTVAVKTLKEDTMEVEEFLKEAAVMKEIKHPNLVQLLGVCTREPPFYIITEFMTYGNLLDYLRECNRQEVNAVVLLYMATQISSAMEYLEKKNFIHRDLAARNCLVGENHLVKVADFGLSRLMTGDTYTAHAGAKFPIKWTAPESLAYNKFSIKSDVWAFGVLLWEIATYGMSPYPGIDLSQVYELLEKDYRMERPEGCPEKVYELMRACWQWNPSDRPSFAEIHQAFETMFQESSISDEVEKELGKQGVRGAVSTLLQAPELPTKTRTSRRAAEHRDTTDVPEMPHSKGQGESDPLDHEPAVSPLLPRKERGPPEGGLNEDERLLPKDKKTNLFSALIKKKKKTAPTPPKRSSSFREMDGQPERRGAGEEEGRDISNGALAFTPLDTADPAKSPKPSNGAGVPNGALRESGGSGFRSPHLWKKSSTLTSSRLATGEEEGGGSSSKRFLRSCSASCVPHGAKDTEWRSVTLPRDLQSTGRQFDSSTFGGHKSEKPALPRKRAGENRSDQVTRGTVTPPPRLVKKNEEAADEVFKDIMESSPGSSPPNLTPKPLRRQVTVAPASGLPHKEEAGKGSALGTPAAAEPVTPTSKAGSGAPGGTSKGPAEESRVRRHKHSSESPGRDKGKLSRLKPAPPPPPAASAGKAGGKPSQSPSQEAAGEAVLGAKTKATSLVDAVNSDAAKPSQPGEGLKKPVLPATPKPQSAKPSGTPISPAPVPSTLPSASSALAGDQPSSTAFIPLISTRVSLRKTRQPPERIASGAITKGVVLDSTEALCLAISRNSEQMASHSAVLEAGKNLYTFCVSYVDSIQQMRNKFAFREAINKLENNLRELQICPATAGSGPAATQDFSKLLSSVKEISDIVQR
Sequence of Platelet-derived growth factor receptor alpha (Homo sapiens) (P16234 whole entry, the tested form may be a part, canonical isoform): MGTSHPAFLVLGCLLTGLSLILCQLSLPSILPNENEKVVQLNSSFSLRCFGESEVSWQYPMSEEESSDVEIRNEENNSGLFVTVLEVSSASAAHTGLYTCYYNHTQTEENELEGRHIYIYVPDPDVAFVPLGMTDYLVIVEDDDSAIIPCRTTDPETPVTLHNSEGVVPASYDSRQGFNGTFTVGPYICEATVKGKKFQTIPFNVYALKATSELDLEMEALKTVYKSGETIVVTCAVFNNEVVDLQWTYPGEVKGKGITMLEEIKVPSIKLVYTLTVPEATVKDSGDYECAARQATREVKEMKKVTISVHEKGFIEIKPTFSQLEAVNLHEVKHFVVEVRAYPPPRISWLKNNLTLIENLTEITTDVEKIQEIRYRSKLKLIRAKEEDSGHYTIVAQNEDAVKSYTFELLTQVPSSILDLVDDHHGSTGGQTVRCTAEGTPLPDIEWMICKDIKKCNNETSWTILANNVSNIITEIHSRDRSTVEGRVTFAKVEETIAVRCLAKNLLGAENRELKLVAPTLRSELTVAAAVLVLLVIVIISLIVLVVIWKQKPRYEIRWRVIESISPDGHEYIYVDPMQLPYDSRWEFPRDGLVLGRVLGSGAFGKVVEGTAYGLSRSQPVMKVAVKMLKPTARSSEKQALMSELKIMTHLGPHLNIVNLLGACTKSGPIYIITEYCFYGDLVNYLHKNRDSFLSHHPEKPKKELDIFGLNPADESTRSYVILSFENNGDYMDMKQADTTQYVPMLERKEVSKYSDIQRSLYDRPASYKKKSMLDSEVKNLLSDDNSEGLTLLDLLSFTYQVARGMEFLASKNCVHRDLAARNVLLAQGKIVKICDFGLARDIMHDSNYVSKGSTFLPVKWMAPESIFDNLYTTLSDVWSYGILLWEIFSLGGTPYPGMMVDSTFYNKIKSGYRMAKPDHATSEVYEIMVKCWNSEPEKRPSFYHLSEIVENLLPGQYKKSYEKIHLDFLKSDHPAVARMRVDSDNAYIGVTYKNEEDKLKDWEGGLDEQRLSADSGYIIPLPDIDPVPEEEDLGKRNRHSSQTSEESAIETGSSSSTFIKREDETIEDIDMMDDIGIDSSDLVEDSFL
Sequence of Hepatocyte growth factor receptor (Homo sapiens) (P08581 whole entry, the tested form may be a part): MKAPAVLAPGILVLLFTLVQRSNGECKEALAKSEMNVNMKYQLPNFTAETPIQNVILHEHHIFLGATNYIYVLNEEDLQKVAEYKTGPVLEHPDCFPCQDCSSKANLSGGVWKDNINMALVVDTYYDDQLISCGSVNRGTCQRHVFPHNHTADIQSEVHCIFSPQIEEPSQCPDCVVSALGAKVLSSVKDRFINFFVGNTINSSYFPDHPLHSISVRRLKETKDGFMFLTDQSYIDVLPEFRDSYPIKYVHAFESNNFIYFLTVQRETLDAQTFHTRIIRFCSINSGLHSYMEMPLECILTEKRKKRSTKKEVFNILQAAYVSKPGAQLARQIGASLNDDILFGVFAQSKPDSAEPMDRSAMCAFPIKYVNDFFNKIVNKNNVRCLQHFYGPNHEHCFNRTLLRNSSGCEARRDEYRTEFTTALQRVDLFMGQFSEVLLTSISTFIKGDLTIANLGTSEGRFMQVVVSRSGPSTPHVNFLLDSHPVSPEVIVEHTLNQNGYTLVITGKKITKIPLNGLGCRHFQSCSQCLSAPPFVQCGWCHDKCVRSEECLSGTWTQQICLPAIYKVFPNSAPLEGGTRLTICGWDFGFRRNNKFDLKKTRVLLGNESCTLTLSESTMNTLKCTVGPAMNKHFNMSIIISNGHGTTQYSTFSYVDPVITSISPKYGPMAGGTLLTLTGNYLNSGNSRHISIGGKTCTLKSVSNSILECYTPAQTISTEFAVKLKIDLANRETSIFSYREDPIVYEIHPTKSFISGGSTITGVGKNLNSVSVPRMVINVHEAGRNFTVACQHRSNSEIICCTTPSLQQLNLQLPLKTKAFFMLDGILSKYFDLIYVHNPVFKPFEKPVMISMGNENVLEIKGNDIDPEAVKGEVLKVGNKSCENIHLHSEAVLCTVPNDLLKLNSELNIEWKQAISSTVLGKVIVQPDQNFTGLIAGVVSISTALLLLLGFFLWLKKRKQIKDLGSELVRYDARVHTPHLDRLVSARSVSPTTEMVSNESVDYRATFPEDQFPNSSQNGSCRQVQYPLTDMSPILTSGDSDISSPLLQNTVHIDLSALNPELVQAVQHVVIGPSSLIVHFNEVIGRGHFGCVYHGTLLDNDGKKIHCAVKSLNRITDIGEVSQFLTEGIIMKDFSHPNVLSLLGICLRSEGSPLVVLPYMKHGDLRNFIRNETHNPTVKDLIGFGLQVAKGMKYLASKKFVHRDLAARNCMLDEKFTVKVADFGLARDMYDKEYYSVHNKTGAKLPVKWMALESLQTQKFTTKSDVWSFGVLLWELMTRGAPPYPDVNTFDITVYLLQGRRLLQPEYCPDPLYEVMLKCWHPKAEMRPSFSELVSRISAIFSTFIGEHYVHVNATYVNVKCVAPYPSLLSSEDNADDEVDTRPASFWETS

`NCCc1ccc(-c2ncnc3[nH]cnc23)cc1` gave an inhibition [1] of 78% and an inhibition [2] of 35%.

`NCC1CCN(c2ncnc3[nH]ccc23)CC1` was tested, and the inhibition [3] was 9% and the inhibition [4] was 0%.

With `NC1(Cc2ccc(Cl)cc2)CCN(c2ncnc3[nH]ccc23)CC1` the inhibition [5] was 4%.

In the case of `C[C@H](CN(C)C)Oc1nc(Nc2cc3cccc(Cl)c3cn2)cnc1C#N`, the inhibition [6] was 0%.

Molecule `COC(=O)c1cnc(Nc2cnc(C#N)cn2)cc1NCC1CCNCC1` has an inhibition [7] of 7%, an inhibition [8] of 9.5% and an inhibition [9] of 10.5%.

Work on `c1nc(N2CCOCC2)c2nc[nH]c2n1` yielded an inhibition [10] of 54.5%.

With `NCC1CN(c2ncnc3[nH]c4cnccc4c23)CCO1` (stereo unspecified) the inhibition [11] was 39.5%.

Source: ChEMBL document CHEMBL3132769, “Fragment growing to retain or alter the selectivity of anchored kinase hinge-binding fragments” (Medchemcomm, 2014)
